Source: PubChem BioAssay AID1645863 (Buhrlage Lab, Dana-Farber Cancer Institute and Novartis …, 2021)
pIC50: −log10 of the molar value. The source made the active and inactive calls. How the calls were made is not given here.

Each molecule was assayed against Ubiquitin carboxyl-terminal hydrolase 10 (Homo sapiens) (UniProt Q14694) (assay: primary hit verification, biochemical, ubiquitin-specific protease 10 deubiquitylase inhibitors, concentration-effect titration (AID 1645863;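 further: potency values describe inhibition of USP10 cleavage of a fluorogenic ubiquitin substrate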)). Conditions: USP10 deubiquitinase enzymatic assay.
Chain of Ubiquitin carboxyl-terminal hydrolase 10 (Homo sapiens) (Q14694 whole entry, looked up): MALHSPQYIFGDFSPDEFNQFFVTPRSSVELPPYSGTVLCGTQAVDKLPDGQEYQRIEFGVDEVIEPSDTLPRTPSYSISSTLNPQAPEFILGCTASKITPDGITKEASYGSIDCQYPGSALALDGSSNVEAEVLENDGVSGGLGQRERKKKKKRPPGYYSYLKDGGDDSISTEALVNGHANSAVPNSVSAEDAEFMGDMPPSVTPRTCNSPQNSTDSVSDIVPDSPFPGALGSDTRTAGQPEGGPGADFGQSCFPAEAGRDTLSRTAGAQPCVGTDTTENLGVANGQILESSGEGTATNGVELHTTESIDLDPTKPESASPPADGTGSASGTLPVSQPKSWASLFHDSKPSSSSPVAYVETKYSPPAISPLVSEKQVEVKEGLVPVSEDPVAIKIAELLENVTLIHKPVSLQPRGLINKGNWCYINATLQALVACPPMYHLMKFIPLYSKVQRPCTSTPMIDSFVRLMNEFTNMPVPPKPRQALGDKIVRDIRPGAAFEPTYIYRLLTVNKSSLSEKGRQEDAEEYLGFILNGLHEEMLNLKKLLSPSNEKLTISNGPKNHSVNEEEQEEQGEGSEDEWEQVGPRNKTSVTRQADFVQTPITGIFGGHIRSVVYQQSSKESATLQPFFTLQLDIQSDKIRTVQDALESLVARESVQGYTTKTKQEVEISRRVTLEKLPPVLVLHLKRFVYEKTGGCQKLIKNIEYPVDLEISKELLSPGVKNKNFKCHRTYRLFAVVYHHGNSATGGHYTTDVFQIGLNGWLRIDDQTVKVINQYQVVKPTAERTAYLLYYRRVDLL
`Cc1ccc(C2SCC(=O)Nc3c2c(=O)[nH]n3C2CCCCC2)cc1` (stereo not given) showed a pIC50 of 4.54. With `COc1cccc(NC(=O)Cn2c3ccccc3n3c(=O)cc(-c4ccccc4)nc23)c1` the pIC50 was 4.84. `COc1c(O)cc(CC(=O)O)c(C(C)=O)c1O` was tested, and the pIC50 was 4.82. `COc1ccccc1/C=C/C(=O)NC(Cc1ccccc1)c1nc2ccccc2[nH]1` (stereo not given) was tested, and the IC50 was > 40 µM (inactive). `O=C(c1ccc2occc2c1)N1CCC(S(=O)(=O)c2ccc(-c3ccco3)cc2)CC1` was tested, and the IC50 was > 40 µM (inactive). With `O=C(Nc1ccc(-c2cn3ccsc3n2)cc1)c1ccc(Cl)c([N+](=O)[O-])c1` the pIC50 was 4.70. With `Cc1cc(O)c(=O)cc2c1C[C@H]1CC(C)(C)/C=C/C[C@@]3(C)Oc4cc(=O)c(O)cc(C)c4C[C@@H]3C[C@H](O)[C@]1(C)O2` the IC50 was > 40 µM (inactive). With `CC(C)[C@H]1CC[C@@]2(CO2)[C@H]2C(=O)OCC(C(=O)O)=C[C@H]12` the pIC50 was 4.66. In the case of `COc1ccc2c(c1)CCc1c-2n[nH]c1C(=O)Nc1cc(C)on1`, the IC50 was > 40 µM (inactive). For `Cc1ccc(NC(=O)Nc2nnc(CC(=O)NCc3ccccc3)s2)cc1F`, the IC50 was > 40 µM (inactive). In the case of `COc1ccc(NC(=O)c2cc(-c3cccnc3)n[nH]2)cc1Cl`, the pIC50 was 4.54. For `O=C(O)c1ccccc1C(=O)Nc1ccc(SC(C(=O)Nc2cccc(Cl)c2)c2ccccc2)cc1` (stereo not given), the pIC50 was 4.85. With `CCC(=O)Nc1nc2cc(NC(=O)Nc3ccc(C)cc3)ccc2s1` the IC50 was > 40 µM (inactive). With `COc1ccc(C(=O)C(C)OC(=O)c2cccc(S(=O)(=O)Nc3cc([N+](=O)[O-])ccc3OC)c2)c(OC)c1` (stereo not given) the IC50 was > 40 µM (inactive). For `Cn1cc(C(=O)Nc2ccccc2)c2[nH]c(=O)n(Cc3ccccc3)c(=O)c21`, the IC50 was > 40 µM (inactive). `CC1Oc2cc3c(-c4c(O)cc(O)c5c(O)c6c(cc45)OC(C)C(C)C6=O)c(O)cc(O)c3c(O)c2C(=O)C1C` (stereo not given) was tested, and the IC50 was > 40 µM (inactive). `COCCCNC(=O)c1ccc(Cn2c(=O)c3ccccc3n(CC(=O)Nc3ccc(OC)cc3)c2=O)cc1` was tested, and the IC50 was > 40 µM (inactive). In the case of `CCOc1ncccc1C(=O)Nc1ccnn1Cc1ccccc1`, the IC50 was > 40 µM (inactive). In the case of `Cc1noc(/C=C/Nc2cc(Cl)cc(Cl)c2)c1[N+](=O)[O-]`, the IC50 was > 40 µM (inactive). With `Cc1cccc(C)c1NC(=O)COc1ccccc1-c1nnc(-c2ccccc2)o1` the IC50 was > 40 µM (inactive). In the case of `O=C(c1ccc2cc[nH]c2c1)N1CCC(Nc2cccnc2)C1` (stereo not given), the IC50 was > 40 µM (inactive). Molecule `O=C(Cc1ccc(-n2c(=O)c3ccccc3n(CC(=O)Nc3ccc(Cl)cc3Cl)c2=O)cc1)NCc1ccco1` has a pIC50 of 4.95. Molecule `CC1CCCN(S(=O)(=O)c2ccc(-n3cnc(C(=O)NC4CC4)c3)nc2)C1` (stereo not given) has a pIC50 of 4.64. With `O=C(CSc1nc2cc(C(F)(F)F)ccc2s1)NCC(=O)c1ccccc1` the pIC50 was 4.74. In the case of `COc1ccc(-c2cc3nc([C@H](C)NC(=O)CC4CCCC4)nn3cn2)cc1`, the IC50 was > 40 µM (inactive). `O=C(Nc1cccc(Cl)c1)c1ncn2c1CNS(=O)(=O)c1ccccc1-2` was tested, and the pIC50 was 4.72. `Cc1cc(C)c2nc3c(cc2c1)CN(Cc1ccco1)C(=O)O3` was tested, and the IC50 was > 40 µM (inactive). Work on `O=C(Nc1ccccc1C(=O)O)c1ccc(CSCc2ccccc2)cc1` yielded a pIC50 of 4.98. For `CSC1SCC2C(=O)N(C)C(C(C)C(C)C)C(=O)OCC(NC(=O)c3cnc4ccccc4n3)C(=O)NC(C)C(=O)N(C)C1C(=O)N(C)C(C(C)C(C)C)C(=O)OCC(NC(=O)c1cnc3ccccc3n1)C(=O)NC(C)C(=O)N2C` (stereo not given), the pIC50 was 4.71. In the case of `Cc1cccc(NC(=O)Nc2ccccc2OCc2cc(=O)n3cccc(C)c3n2)c1`, the pIC50 was 4.57. With `CC(C)Cc1nc2sc3c(SCC(=O)N4CCC(C)CC4)ncnc3c2c2c1COC(C)(C)C2` the IC50 was > 40 µM (inactive). For `COc1ccc(CC(=O)OCC(=O)N2c3ccccc3NC(=O)C2(C)C)cc1`, the IC50 was > 40 µM (inactive). For `O=C(Nc1ccccc1C(=O)NC1CCSC1)c1ccc([N+](=O)[O-])cc1` (stereo not given), the IC50 was > 40 µM (inactive). With `N#Cc1cccnc1N1CCN(C(=O)Nc2cccc3ccccc23)CC1` the IC50 was > 40 µM (inactive). Work on `O=C(CCn1c(=O)c2ccccc2n(CC(=O)OCc2ccccc2)c1=O)NCc1ccc2c(c1)OCO2` yielded a pIC50 of 4.76. `O=c1c2ccccc2nc(CSc2cccc(Cl)c2Cl)n1-c1ccccc1` was tested, and the IC50 was > 40 µM (inactive). For `O=C(Nc1ccc(-n2cccc2)cc1)c1cccc([N+](=O)[O-])c1`, the IC50 was > 40 µM (inactive). With `COC(=O)c1ccccc1NC(=O)C1CCCN(c2nnc(-n3cccc3)s2)C1` (stereo not given) the IC50 was > 40 µM (inactive). With `Cc1nc(N2CCN(c3ccc(Cl)cc3)CC2)c2oc3ccccc3c2n1` the pIC50 was 4.75. `Cc1nnc(NC(=O)C2CCN(c3ccc(S(N)(=O)=O)cc3[N+](=O)[O-])CC2)o1` gave a pIC50 of 4.90. `Cc1ccc(NC(=O)Cc2sc(Nc3ccc(C)cc3)nc2O)cc1` was tested, and the IC50 was > 40 µM (inactive). With `Cc1c(C)n(-c2ccccc2)c2ncn(CC(=O)NCc3cccc(F)c3)c(=O)c12` the IC50 was > 40 µM (inactive). With `COc1ccc([N+](=O)[O-])cc1NC(=O)COC(=O)c1ccc2[nH]c3c(c2c1)CCCC3` the pIC50 was 4.74. With `Cc1ccc(NC(=O)c2cc(-c3ccccn3)nc3c(Cl)cccc23)nc1` the IC50 was > 40 µM (inactive). For `COc1ccc(-c2onc(C)c2C)cc1S(=O)(=O)NCc1ccc(F)cc1`, the IC50 was > 40 µM (inactive). With `O=C(c1ccco1)N1CCCC1c1nc(-c2ccccc2)n[nH]1` (stereo not given) the IC50 was > 40 µM (inactive). For `CCOC(=O)c1ccc(NC(=O)Cn2c(=O)n(-c3ccc(CC(=O)NCc4ccco4)cc3)c(=O)c3ccccc32)cc1`, the IC50 was > 40 µM (inactive). `CCC(C)N1CNc2c(c(=O)[nH]c(=O)n2Cc2ccco2)C1` (stereo not given) was tested, and the IC50 was > 40 µM (inactive). In the case of `O=C(Nc1cccnc1)C1c2ccccc2C(=O)N(c2ccccc2)C12CCCCC2` (stereo not given), the IC50 was > 40 µM (inactive). `Cc1ccccc1NC(=O)Cn1c(=O)n(-c2ccc(CC(=O)NCCc3ccccc3)cc2)c(=O)c2sccc21` showed a pIC50 of 4.89. For `COc1ccc(-n2c(=O)c3ccc(C(=O)NCCc4ccccc4)cc3n(CC(=O)NCc3ccco3)c2=O)cc1`, the IC50 was > 40 µM (inactive). For `CCOCc1ccc(C(=O)N[C@H](C)c2nc3cc(-c4ccc(OC)cc4)ncn3n2)cc1`, the IC50 was > 40 µM (inactive). Work on `CCCCCCCCCC(CCCCCCCCCC(=O)O)O[C@H]1O[C@@H](COC(C)=O)[C@H](O)[C@@H](O)[C@H]1OC(=O)CC(=O)O` (stereo not given in full) yielded a pIC50 of 4.53. Molecule `CCOC(=O)C1CCN(Cc2cc(=O)oc3cc(O)c(O)cc23)CC1` has a pIC50 of 5.77. With `CCOc1ccc2c(c1)c(=O)c(C(=O)c1ccccc1)cn2CC(=O)Nc1ccccc1` the IC50 was > 40 µM (inactive). `COC(=O)c1ccc2c(=O)n(CCCCCC(=O)NCc3cccc(Cl)c3)c(=O)[nH]c2c1` gave a pIC50 of 4.79. With `Oc1cccc2c(-c3ccc(O)c4c(O)cccc34)ccc(O)c12` the IC50 was > 40 µM (inactive). For `Cn1c(=O)c2ncnnc2n(C)c1=O`, the pIC50 was 5.51. For `CCOC(=O)c1cc2c(ccn2C)n1CC(=O)NC1CC1`, the IC50 was > 40 µM (inactive). For `Cc1ccc(-c2cc(=O)n(CC(=O)Nc3ccc(C(C)C)cc3)cn2)cc1`, the IC50 was > 40 µM (inactive). With `Cc1cccc(Cl)c1NC(=O)Nc1ccc(NC(=O)c2ccccc2O)cc1` the pIC50 was 4.88. `COc1ccccc1CNC(=O)CCCCn1c(=O)c2ccccc2n(Cc2ccc(C)cc2)c1=O` showed a pIC50 of 4.68. Molecule `COc1cc2cc3c(c(O)c2c(O)c1-c1c(OC)cc2cc4c(c(O)c2c1O)C(=O)OC1CC(C)OC41)C(=O)OC1CC(C)OC31` (stereo not given) has a pIC50 of 5.04. With `Cc1ccccc1NC(=O)CSC1=NC2(CCCCC2)Nc2ccccc21` the IC50 was > 40 µM (inactive). Work on `O=C(NCc1ccc2c(c1)OCO2)c1cn(-c2cccc(Cl)c2)nn1` yielded a pIC50 of 4.48. For `O=C(CNC(=O)c1ccc2nc(-n3cccc3)sc2c1)NCc1ccccc1`, the IC50 was > 40 µM (inactive). With `O=C(CCn1c(=O)c2sccc2n(Cc2ccc([N+](=O)[O-])cc2)c1=O)NCc1ccccc1` the IC50 was > 40 µM (inactive). With `O=C(NCc1ccc2c(c1)OCO2)c1cc2c(s1)CCC2` the pIC50 was 4.88. `O=C(Nc1cc(F)c2nc(N3CCCC3)ccc2c1)c1ccco1` was tested, and the IC50 was > 40 µM (inactive). `Cc1ccc2[nH]c(=O)c(-c3nc4ccc(C)cn4c3NCc3ccc(F)cc3)cc2c1` gave a pIC50 of 4.69. For `COc1ccc(Cl)cc1NC(=O)Cn1c(=O)n(CCCC(=O)NCc2ccc(C)cc2)c(=O)c2sccc21`, the pIC50 was 4.51. `O=C(Nc1nc2c(ccc3ccccc32)s1)c1cccc(Br)c1` was tested, and the IC50 was > 40 µM (inactive). For `COc1ccc(Oc2cc3n(c(=O)n2)CCc2cc(OC)c(OC)cc2-3)cc1`, the IC50 was > 40 µM (inactive). `CCOC(=O)N1CCN(C(=O)c2ccc(NCc3ccc(F)cc3)c(S(=O)(=O)Nc3cccc(C(F)(F)F)c3)c2)CC1` was tested, and the pIC50 was 4.53. In the case of `COc1ccc(CCNC(=O)Cn2c(=O)n(-c3ccc(CC(=O)NCCc4ccccc4)cc3)c(=O)c3ccccc32)cc1OC`, the IC50 was > 40 µM (inactive). Molecule `CC(NC(=O)c1ccccc1)c1nc2ccccc2n1CC(=O)Nc1ccc(C#N)cc1` (stereo not given) has a pIC50 of 4.88. In the case of `COc1ccc(-c2cc3nc([C@H](C)NC(=O)Cc4cccc(F)c4)nn3cn2)cc1`, the IC50 was > 40 µM (inactive). Molecule `Cc1ccc(NC(=O)Cc2nnc3cc(-c4nc(C)no4)ccn23)cc1` has a pIC50 of 4.85. For `COc1cc2c(=O)n(CC3CCCO3)c(=O)n(CC(=O)c3ccc4c(c3)OCO4)c2cc1OC` (stereo not given), the pIC50 was 4.43. With `COc1ccc(NC(=O)c2nnc(C(=O)NCCN3CCCCCC3)s2)cc1` the IC50 was > 40 µM (inactive). For `Cc1ccc(Nc2nc(O)c(CC(=O)Nc3cccc(Cl)c3C)s2)cc1C`, the pIC50 was 4.60. With `Cc1cc(C)cc(NC(=O)C2CC(=O)Nc3nc4ccccc4n32)c1` (stereo not given) the IC50 was > 40 µM (inactive). For `O=S1(=O)CCN(Cc2c(F)cccc2F)c2c(F)nc(N3CCOCC3)c(F)c21`, the IC50 was > 40 µM (inactive). `CCCCOc1ccc(-c2cc3n(c(=N)c2C#N)CCc2cc4c(cc2-3)OCCCO4)cc1OC` was tested, and the IC50 was > 40 µM (inactive). With `Cc1nnc(-c2ccc3ccn(CC(=O)N4CCN(c5ccccc5)CC4)c3c2)o1` the IC50 was > 40 µM (inactive). `Cc1cc(C)c(NC(=O)Cn2c(SCc3cccc(F)c3)nc3cccnc32)c(C)c1` was tested, and the IC50 was > 40 µM (inactive). For `O=C(CSc1nnc2c3ccccc3nc(-c3ccco3)n12)N1CCCc2ccccc21`, the pIC50 was 5.42. In the case of `CCc1ccc(S(=O)(=O)c2cn(CC(=O)Nc3ccccc3)c3ccccc3c2=O)cc1`, the IC50 was > 40 µM (inactive). `Cc1cc(C)c(NC(=O)CSc2nc3nccnc3c(=O)n2Cc2ccccc2Cl)c(C)c1` was tested, and the IC50 was > 40 µM (inactive). `Cc1ccc(NC(=O)Nc2ccc(C)n(CC(=O)Nc3ccc(C)c(C)c3)c2=O)cc1` gave a pIC50 of 4.96.
